Test results reported in PMC11984392, “EphA2-targeted alpha-particle theranostics for enhancing PDAC treatment” (Theranostics, 2025).
Read-outs that look alike come from different tables or passages of the source. *1 amine or outer side, *2 acyl side, *3 side chain or, on linkers, in order; H or OH if unused. Where a SMILES comes first, the peptide text is derived from it. Bridges are numbered along the chain shown (N, C = ends). [ ]: non-standard residue; d: D form. The star is where a group is joined. TATA = O=C(CC[*:1])N1CN(C(=O)CC[*:2])CN(C(=O)CC[*:3])C1; NOTA = O=C(O)CN1CCN(CC(=O)O)CCN(CC(=O)*)CC1; Hyp = O=C(O)[C@@H]1C[C@@H](O)CN1; hArg = N=C(N)NCCCC[C@H](N)C(=O)O; PEG2 = NCCOCCOCCC(=O)O; Sar = CNCC(=O)O

Experiment: Ex vivo biodistribution
Parameters: species or system NSG mice
Details: both sexes, NSG, mouse, in vivo, total radioactivity, mean ± SEM (n = 4 or 5); for tissue uptake at 2 h / tissue to tissue ratio at 2 h: 120 min p.i.; for tissue to tissue ratio at 2 h: dimensionless; for tissue uptake at 5 min: 5 min p.i.; for tissue uptake at 0.5 h: 30 min p.i.; for tissue uptake at 1.5 h: 90 min p.i.
Description: Animal studies were performed under Johns Hopkins University Animal Care and Use Committee (ACUC)-approved protocol (Principal investigator: Sridhar Nimmagadda, Ph.D. and Protocol number M021M175). Male and Female NSG mice (5-6 weeks old) were purchased from JHU immunocompromised core and used to establish xenografts by administering cells subcutaneously (top right flank, unless otherwise noted) to form various tumor models within 3-4 weeks. Following cell numbers were used: Panc1, AsPC1, BxPC3 (1 M), Hs766T and SU8686 (2 M), CFPAC and Panc1005 (5 M). Imaging or biodistribution studies (n = 3-5) were conducted on mice with tumor volumes of 100-200 mm^3. The Panc1 orthotopic tumor model was established by surgically implanting a 3-5 mm^3 section of Panc1 tumor xenograft directly onto the pancreas. The implanted tumors were allowed to grow and were ready for imaging after 10 days of implantation.
Mice with 100-200 mm^3 tumor volume were used for ex vivo biodistribution studies. For radiotracer pharmacokinetics and dosimetry studies, mice with Panc1 tumor xenograft received ~80 µCi (2.96 MBq) [^68Ga]AJ201 and were sacrificed at pre-determined time points (5, 30, 60, 90 and 120 min). All other mice were injected with ~50 µCi (1.85 MBq; 0.2 to 0.5 nmol) Ga-68 labeled radiotracer and were sacrificed at 60 min. The selected tissues were collected, weighed, counted, and their %ID/g values calculated for biodistribution analysis. For pharmacokinetics and dosimetry studies, selected tissues included blood, muscle, tumor, thymus, heart, lung, liver, pancreas, stomach, small intestine, large intestine, spleen, adrenals, kidney, bladder, femur, brain and tumor xenografts. For other studies, selected tissues were blood, muscle, tumor, heart, lung, liver, pancreas, small intestine, spleen, kidney.

[1] = iv, i.v., read-out: Adrenals uptake
[2] = iv, i.v., read-out: Bladder uptake
[3] = iv, i.v., read-out: Femur uptake
[4] = iv, i.v., read-out: Kidney uptake
[5] = iv, i.v., read-out: Large Intestine uptake
[6] = iv, i.v., read-out: Small intestine uptake
[7] = iv, i.v., read-out: Spleen uptake

**Q.** What does the source list for `CC(C)C[C@@H]1NC(=O)[C@@H]2CSCCC(=O)N3CN(CN(C3)C(=O)CCSC[C@H](NC(=O)[C@H](CC(=O)O)NC(=O)[C@H](CCCCNC(=N)N)NC(=O)[C@H](C)NC(=O)CNC(=O)CN(C)C(=O)CN(C)C(=O)CN(C)C(=O)[C@H](CCCNC(=N)N)NC(=O)CNC(=O)CCOCCOCCNC(=O)CN3CCN(CC(=O)O)CCN(CC(=O)O)CC3)C(=O)N3C[C@H](O)C[C@H]3C(=O)N[C@@H](CC(C)C)C(=O)N[C@@H](C(C)C)C(=O)N[C@@H](CC(N)=O)C(=O)N3CCC[C@H]3C(=O)N[C@@H](CC(C)C)C(=O)N2)C(=O)CCSC[C@@H](C(N)=O)NC(=O)[C@H](CCCCNC(=N)N)NC(=O)[C@H](Cc2c[nH]c3ccccc23)NC(=O)[C@@H](CC(=O)O)NC(=O)[C@@H]2CCCN2C(=O)[C@H](Cc2c[nH]cn2)NC1=O` [[^68Ga]AJ201, metal not drawn] ({NOTA-PEG2}-GR[Sar][Sar][Sar]GA[hArg]DC[Hyp]LVNPLCLHP[dD]W[hArg]C-NH2; linker 10-17-24 via TATA)?
**A.** tissue uptake at 2 h (iv, 80 uCi, i.v., read-out: Pancreas uptake): 0.36 ± 0.07 %ID/g; tissue uptake at 2 h (iv, 80 uCi, i.v., read-out: Thymus uptake): 1.21 ± 0.52 %ID/g; tissue uptake at 2 h (iv, 80 uCi, i.v., read-out: Tumor uptake): 6.46 ± 0.39 %ID/g; tissue to tissue ratio at 2 h (iv, 80 uCi, read-out: Tumor/Muscle ratio): 24.9 ± 1.93; tissue to tissue ratio at 2 h (iv, 80 uCi, read-out: Tumor/Pancreas ratio): 18.7 ± 2.39; tissue to tissue ratio at 2 h (iv, 80 uCi, read-out: Tumor/blood ratio): 8.36 ± 1.85; tissue uptake at 5 min [1]: 4.91 ± 1.83 %ID/g; tissue uptake at 5 min [2]: 28.1 ± 12.1 %ID/g; tissue uptake at 5 min [3]: 2.77 ± 0.13 %ID/g; tissue uptake at 5 min [4]: 37.5 ± 5.93 %ID/g; tissue uptake at 5 min [5]: 3.67 ± 0.66 %ID/g; tissue uptake at 5 min [6]: 3.25 ± 0.3 %ID/g; tissue uptake at 5 min [7]: 7.95 ± 1.66 %ID/g; tissue uptake at 0.5 h [1]: 2.44 ± 0.46 %ID/g; tissue uptake at 0.5 h [2]: 53.8 ± 30.8 %ID/g; tissue uptake at 0.5 h [3]: 1.36 ± 0.37 %ID/g; tissue uptake at 0.5 h [4]: 56.9 ± 1.26 %ID/g; tissue uptake at 0.5 h [5]: 1.95 ± 0.98 %ID/g; tissue uptake at 0.5 h [6]: 1.16 ± 0.18 %ID/g; tissue uptake at 0.5 h [7]: 3.87 ± 1.1 %ID/g; tissue uptake at 1 h (iv, 60 min p.i., i.v., read-out: Bladder uptake): 48.6 ± 15.5 %ID/g; tissue uptake at 1 h (iv, 60 min p.i., i.v., read-out: Femur uptake): 0.28 ± 0.06 %ID/g; tissue uptake at 1 h (iv, 60 min p.i., i.v., read-out: Kidney uptake): 45.5 ± 2.9 %ID/g; tissue uptake at 1 h (iv, 60 min p.i., i.v., read-out: Large Intestine uptake): 0.15 ± 0.01 %ID/g; tissue uptake at 1 h (iv, 60 min p.i., i.v., read-out: Small intestine uptake): 0.49 ± 0.07 %ID/g; tissue uptake at 1 h (iv, 60 min p.i., i.v., read-out: Spleen uptake): 0.74 ± 0.17 %ID/g; tissue uptake at 1.5 h [1]: 1.85 ± 0.46 %ID/g; tissue uptake at 1.5 h [2]: 18.3 ± 6.35 %ID/g; tissue uptake at 1.5 h [4]: 61.8 ± 11.5 %ID/g; tissue uptake at 1.5 h [5]: 1.46 ± 0.35 %ID/g; tissue uptake at 1.5 h [6]: 0.6 ± 0.15 %ID/g; tissue uptake at 1.5 h [7]: 1.81 ± 0.78 %ID/g; tissue uptake at 2 h [1]: 2.69 ± 0.27 %ID/g; tissue uptake at 2 h [2]: 19 ± 8.08 %ID/g; tissue uptake at 2 h [4]: 52 ± 7.46 %ID/g; tissue uptake at 2 h [5]: 1.02 ± 0.3 %ID/g; tissue uptake at 2 h [6]: 0.45 ± 0.24 %ID/g; tissue uptake at 2 h [7]: 1.55 ± 0.47 %ID/g; tissue uptake at 2 h (iv, i.v., read-out: Stomach with contents uptake): 0.3 ± 0.01 %ID/g; tissue uptake at 1 h (60 min p.i. with blocking (non-radioactive AJ201 pre-administered), read-out: Adrenals uptake): 2.36 ± 1.09 %ID/g; tissue uptake at 1 h (60 min p.i. with blocking (non-radioactive AJ201 pre-administered), read-out: Bladder uptake): 14.4 ± 13.2 %ID/g; tissue uptake at 1 h (60 min p.i. with blocking (non-radioactive AJ201 pre-administered), read-out: Blood uptake): 0.65 ± 0.11 %ID/g; tissue uptake at 1 h (60 min p.i. with blocking (non-radioactive AJ201 pre-administered), read-out: Brain uptake): 0.04 ± 0.001 %ID/g; tissue uptake at 1 h (60 min p.i. with blocking (non-radioactive AJ201 pre-administered), read-out: Femur uptake): 0.38 ± 0.05 %ID/g; tissue uptake at 1 h (60 min p.i. with blocking (non-radioactive AJ201 pre-administered), read-out: Heart uptake): 0.31 ± 0.05 %ID/g; tissue uptake at 1 h (60 min p.i. with blocking (non-radioactive AJ201 pre-administered), read-out: Kidney uptake): 71.3 ± 14.2 %ID/g; tissue uptake at 1 h (60 min p.i. with blocking (non-radioactive AJ201 pre-administered), read-out: Large Intestine uptake): 0.93 ± 0.4 %ID/g; tissue uptake at 1 h (60 min p.i. with blocking (non-radioactive AJ201 pre-administered), read-out: Liver uptake): 0.48 ± 0.07 %ID/g; tissue uptake at 1 h (60 min p.i. with blocking (non-radioactive AJ201 pre-administered), read-out: Lung uptake): 0.8 ± 0.14 %ID/g; tissue uptake at 1 h (60 min p.i. with blocking (non-radioactive AJ201 pre-administered), read-out: Muscle uptake): 0.26 ± 0.03 %ID/g; tissue uptake at 1 h (60 min p.i. with blocking (non-radioactive AJ201 pre-administered), read-out: Pancreas uptake): 0.3 ± 0.03 %ID/g; tissue uptake at 1 h (60 min p.i. with blocking (non-radioactive AJ201 pre-administered), read-out: Small intestine uptake): 0.51 ± 0.08 %ID/g; tissue uptake at 1 h (60 min p.i. with blocking (non-radioactive AJ201 pre-administered), read-out: Spleen uptake): 0.7 ± 0.11 %ID/g; tissue uptake at 1 h (60 min p.i. with blocking (non-radioactive AJ201 pre-administered), read-out: Stomach with contents uptake): 0.19 ± 0.06 %ID/g; tissue uptake at 1 h (60 min p.i. with blocking (non-radioactive AJ201 pre-administered), read-out: Thymus uptake): 2.28 ± 0.53 %ID/g; tissue uptake at 1 h (60 min p.i. with blocking (non-radioactive AJ201 pre-administered), read-out: Tumor uptake): 1.08 ± 0.24 %ID/g; tissue to tissue ratio at 1 h (60 min p.i. with blocking (non-radioactive AJ201 pre-administered), read-out: Tumor/Muscle ratio): 4.4 ± 1.19; tissue to tissue ratio at 1 h (60 min p.i. with blocking (non-radioactive AJ201 pre-administered), read-out: Tumor/Pancreas ratio): 3.5 ± 0.7; tissue to tissue ratio at 1 h (60 min p.i. with blocking (non-radioactive AJ201 pre-administered), read-out: Tumor/blood ratio): 1.66 ± 0.37
